The source of these data is US20250144085A1, “PHARMACEUTICAL COMPOSITION FOR PREVENTING OR TREATING CANCER COMPRISING OMEPRAZOLE BROWNING MATTER” (NEW CANCER CURE BIO CO., LTD, priority 2021, published 2025).

The experiment relates to pancreatic cancer (MIA PaCa2) cell line. Put plainly: sulforhodamine B colorimetric assay (SRB assay) of cancer cell death. It counts as cell-based. Particulars: 48 hours; for Cancer cell killing rate (%) by treatment with omeprazole (KN510) degradation substance: 0.1%; for Cancer cell growth rate following treatment with omeprazole (KN510) degradation substance, average(%): treated at a concentration of 0.1%. As for the experimental part: In order to confirm the anticancer activity of the omeprazole (KN510) degradation substances (acid degradation substances) and base degradation substances prepared in Example 1 above, the cancer cell killing effect of each of the omeprazole (KN510) degradation substances was determined. The extent of cancer cell death was measured by sulforhodamine B colorimetric assay (SRB assay), which was performed as follows: A pancreatic cancer (MIA PaCa2) cell line (100 μ ? ) was inoculated into 96-well cell culture plates at a density ranging from 7,500 to 10,000 cells/well depending on the doubling time. Each of the omeprazole (KN510) degradation substances prepared in Example 1 above was treated at a concentration of 0.1% and incubated in a CO2 incubator for 48 hours, after which the assay was terminated by adding cold TCA. Cells were fixed intact by gently adding 50 μl of cold 50% (w/v) TCA (final concentration: 10% TCA) and incubated at 4° C. for 60 min. The supernatant was discarded, and the plate was washed five times with distilled water and then air dried. A solution (100 μl) of 0.4% (w/v) sulforhodamine B in 1% acetic acid was added to each well, and the plate was left at room temperature for 10 min. After staining, unbound dye was removed by washing five times with 1% acetic acid, and the plate was air-dried. The bound dye was then solubilized with 10 mM trizma base, and the absorbance was recorded at 515 nm using an automated plate reader. All experiments were performed in triplicate, and data were expressed as mean±standard deviation values.
A general note: The SRB assay estimates cell density from bound dye.

For the molecule `COc1ccc2[nH]c([S+]([O-])Cc3ncc(C)c(OC)c3C)nc2c1` (centres unmarked) [omeprazole (KN510), omeprazole], the “Cancer cell killing rate (%) by treatment with omeprazole (KN510) degradation substance” value reads like this: (compared to the control group using the values in Table 1) “about 32%”; (compared to the control group using the values in Table 1, listed as KN510 + 1M HCl 0 μl) 31.85%; (compared to the control group using the values in Table 1, listed as KN510 + 1M NaOH 0 μl) 32.82%. Also, the “Cancer cell growth rate following treatment with omeprazole (KN510) degradation substance, average(%)” value reads like this: (control = 100.00, listed as KN510 + 1M HCl 0 μl) 68.15%; (control = 100.00, listed as KN510 + 1M NaOH 0 μl) 67.18%.
